Consider eight compounds from patent US10245264B2, “Substituted imidazo[1,2-a]pyrazines as soluble guanylate cyclase activators” (Merck Sharp & Dohme Corp., priority 2015, dated 2019).

The test system of assay [1] is systolic blood pressure in spontaneously hypertensive rats. Put plainly: Acute efficacy in spontaneously hypertensive rats (SHR), telemetry blood pressure. It counts as in vivo, rat. The text has this:
Acute Efficacy in Spontaneously Hypertensive Rats (SHR)
Spontaneously hypertensive rats (SHR, male, Charles River) were implanted with DSI TA11 PA-C40 telemetry device (Data Sciences, Inc., St. Paul, Minn.) under isoflurane or ketamine/metomidine anesthesia. The telemetry unit catheter was inserted into the descending aorta via the femoral artery and the telemetry device was implanted subcutaneously in the left flank area. Animals were allowed to recover from surgery for 14 days before the start of any studies. Blood pressure, heart rate, and activity signals from conscious, freely moving rats were recorded continuously for 30 seconds every 10 minutes. On the day prior to administration of compound, a single oral dose of vehicle (10% transcutol/20% Cremophor/70% water) was administered to all animals to establish baseline control data. The blood pressure lowering efficacy of compound (PO) or vehicle was evaluated following a single oral gavage. Data were collected as hourly averages, and changes in blood pressure were calculated by subtracting control baseline data on an hourly basis. Animals were maintained on normal diet with a 12 hour light-dark cycle.
Maximum peak decreases of systolic blood pressure (SBP) in SHR at a particular P.O. dose (mpk milligrams per kilogram) for the following representative compounds are provided below in Table 6.
Category A=SBP in SHRs <20 mmHg; Category B=SBP in SHRs 20-40 mmHg;
Category C=SBP in SHRs >40 mmHg

In assay [2] the target is T1, sGC α1/β1 heterodimer stably expressed in CHO-K1 cells (CHO-K1/sGC) (Homo sapiens, UniProt Q02108+Q02153).
T1 construct: expressed in transfected cells
T1 sequence (Q02108 1-690): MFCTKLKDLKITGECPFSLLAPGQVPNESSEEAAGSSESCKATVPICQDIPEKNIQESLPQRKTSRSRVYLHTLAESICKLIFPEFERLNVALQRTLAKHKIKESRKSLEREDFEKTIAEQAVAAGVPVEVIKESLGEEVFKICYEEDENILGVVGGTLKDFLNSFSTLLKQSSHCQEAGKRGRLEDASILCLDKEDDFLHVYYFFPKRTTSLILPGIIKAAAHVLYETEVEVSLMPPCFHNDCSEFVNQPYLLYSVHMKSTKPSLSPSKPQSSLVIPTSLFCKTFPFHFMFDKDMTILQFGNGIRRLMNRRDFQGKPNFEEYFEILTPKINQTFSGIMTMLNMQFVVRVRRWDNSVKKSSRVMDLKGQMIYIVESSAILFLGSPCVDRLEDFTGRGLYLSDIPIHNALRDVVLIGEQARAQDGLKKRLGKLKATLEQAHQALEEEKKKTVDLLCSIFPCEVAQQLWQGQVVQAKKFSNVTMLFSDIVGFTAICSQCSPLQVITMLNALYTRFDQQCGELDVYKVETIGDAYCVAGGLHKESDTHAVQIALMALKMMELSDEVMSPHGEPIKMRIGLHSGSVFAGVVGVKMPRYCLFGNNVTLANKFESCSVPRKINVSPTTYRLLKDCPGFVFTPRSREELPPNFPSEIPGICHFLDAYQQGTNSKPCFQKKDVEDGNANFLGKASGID
T1 sequence (Q02153 1-619): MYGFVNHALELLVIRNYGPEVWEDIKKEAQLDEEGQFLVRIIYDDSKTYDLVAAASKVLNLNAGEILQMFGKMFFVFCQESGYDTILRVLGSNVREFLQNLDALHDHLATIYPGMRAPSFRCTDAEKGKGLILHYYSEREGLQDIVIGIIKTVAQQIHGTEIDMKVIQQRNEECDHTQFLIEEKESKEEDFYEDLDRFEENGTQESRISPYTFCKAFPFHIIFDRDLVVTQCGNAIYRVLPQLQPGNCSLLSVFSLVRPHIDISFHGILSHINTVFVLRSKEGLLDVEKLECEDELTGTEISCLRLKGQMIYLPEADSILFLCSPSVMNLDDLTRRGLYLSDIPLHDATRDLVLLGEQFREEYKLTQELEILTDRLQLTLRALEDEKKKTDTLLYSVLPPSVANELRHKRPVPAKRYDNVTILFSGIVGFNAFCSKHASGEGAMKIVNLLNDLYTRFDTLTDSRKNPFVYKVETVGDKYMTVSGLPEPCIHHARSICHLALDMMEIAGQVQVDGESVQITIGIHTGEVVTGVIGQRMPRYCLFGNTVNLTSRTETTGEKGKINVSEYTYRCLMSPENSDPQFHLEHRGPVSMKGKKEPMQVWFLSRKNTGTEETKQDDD
Description: Cell-based sGC functional assay (CASA assay), cGMP generation by HTRF. To be noted: for Emax: CHO-K1, maximum cGMP production of Compound A set to 100% activation, read-out: % Act. (percent activation relative to Compound A); for EC50: CHO-K1/sGC cells, 1 hr at 37° C., 4P fit, presence or absence of DETA-NO not given, read-out: IP (nM) (inflection point). Put shortly: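 CHO-K1/sGC cells (4×10^5/mL) in EBSS with 5 mM MgCl2, 10 mM HEPES, 0.05% BSA and 0.5 mM IBMX, treated 1 hr at 37° C with compounds (2.5% DMSO) with or without 1 μM DETA-NO. cGMP measured by HTRF, expressed as % of a reference heme-dependent activator's maximum; inflection point and fold induction from 4P fit.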
(In TR-FRET formats the signal depends on donor and acceptor labels being close together.)

Structures are written as SMILES.

Consider `CCCOc1nc(-c2nc(N)c3c(n2)NC(=O)C3(C)c2ccc(F)cc2)cn2ccnc12` (stereo not drawn) [Example 39A, 4-Amino-5-(4-fluorophenyl)-5-methyl-2-(8-propoxyimidazo[1,2-a]pyrazin-6-yl)-5,7-dihydro-6H-pyrrolo[2,3-d]pyrimidin-6-one], for which the “Maximum peak decrease of systolic blood pressure (SBP), Category” value (“Maximum peak decrease” for short) in assay [1] (single oral dose 1.0 mpk P.O.) is given as “C (Category C=SBP in SHRs >40 mmHg)”. Moreover, in assay [2], the Emax came to 109% and the EC50 amounted to 148 nM.

Turning to `COCCNc1nc(-c2nc(N)c3c(n2)NC(=O)C3(C)c2ccc(Cl)cc2)cn2ccnc12` (stereo not drawn) [Example 40A, 4-Amino-5-(4-chlorophenyl)-2-{8-[(2-methoxyethyl)amino]imidazo[1,2-a]pyrazin-6-yl}-5-methyl-5,7-dihydro-6H-pyrrolo[2,3-d]pyrimidin-6-one], the “Maximum peak decrease” value in assay [1] (single oral dose 1.0 mpk P.O.) is reported as “B (Category B=SBP in SHRs 20-40 mmHg)”. In assay [2], the Emax was 117% and the EC50 worked out at 85 nM.

`CC1(c2ccc(Cl)cc2)C(=O)Nc2nc(-c3cn4ccnc4c(OCC(F)(F)C(F)(F)F)n3)nc(N)c21` (stereo not drawn) [Example 47A, 4-amino-5-(4-chlorophenyl)-5-methyl-2-[8-(2,2,3,3,3-pentafluoro-propoxy)imidazo [1,2-a]pyrazin-6-yl]-5,7-dihydro-6H-pyrrolo[2,3-d] pyrimidin-6-one]: the “Maximum peak decrease” value in assay [1] (single oral dose 1.0 mpk P.O.) was “B (Category B=SBP in SHRs 20-40 mmHg)”. In assay [2], the Emax turned out to be 91% and the EC50 is 157 nM.

With `CCCOc1nc(-c2nc(N)c3c(n2)NC(=O)C3(C)c2ccc(Cl)cc2)cn2ccnc12` (stereo not drawn) [Example 49A, 4-amino-5-(4-chlorophenyl)-5-methyl-2-(8-propoxyimidazo [1,2-a]pyrazin-6-yl)-5,7-dihydro-6H-pyrrolo[2,3-d] pyrimidin-6-one], the “Maximum peak decrease” value in assay [1] (single oral dose 0.3 mpk P.O.) was “B (Category B=SBP in SHRs 20-40 mmHg)”. Moreover, in assay [2], the Emax was found to be 117% and the EC50 is 30 nM.

As for `CC1(c2ccc(Cl)cc2)C(=O)Nc2nc(-c3cn4ccnc4c(OCCC4CC4)n3)nc(N)c21` (stereo not drawn) [Example 50A, 4-amino-5-(4-chlorophenyl)-2-[8-(2-cyclo-propylethoxy)imidazo[1,2-a]pyrazin-6-yl]-5-methyl-5,7-dihydro-6H-pyrrolo[2,3-d] pyrimidin-6-one], the “Maximum peak decrease” value in assay [1] (single oral dose 0.3 mpk P.O.) was “B (Category B=SBP in SHRs 20-40 mmHg)”. For the same compound, in assay [2], the Emax was determined as 106% and the EC50 was 12 nM.

For the compound `CC(C)COc1nc(-c2nc(N)c3c(n2)NC(=O)C3(C)c2ccc(F)cc2)cn2ccnc12` (stereo not drawn) [Example 51A, 4-amino-5-(4-fluorophenyl)-5-methyl-2-[8-(2-methyl-propoxy)imidazo [1,2-a]pyrazin-6-yl]-5,7-dihydro-6H-pyrrolo[2,3-d] pyrimidin-6-one], the “Maximum peak decrease” value in assay [1] (single oral dose 0.3 mpk P.O.) is given as “B (Category B=SBP in SHRs 20-40 mmHg)”. For the same compound, in assay [2], the Emax was 127% and the EC50 came to 27 nM.

`CC1(c2ccc(Cl)cc2)C(=O)Nc2nc(-c3cn4ccnc4c(NCC(F)(F)C(F)(F)F)n3)nc(N)c21` (stereo not drawn) [Example 61A, 4-amino-5-(4-chlorophenyl)-5-methyl-2-{8-[(2,2,3,3,3-pentafluoro-propyl)amino]imidazo[1,2-a]pyrazin-6-yl}-5,7-dihydro-6H-pyrrolo [2,3-d]pyrimidin-6-one]: the “Maximum peak decrease” value in assay [1] (single oral dose 3.0 mpk P.O.) was “B (Category B=SBP in SHRs 20-40 mmHg)”. Also, in assay [2], the Emax turned out to be 116% and the EC50 was determined as 165 nM.

With `CCCSc1nc(-c2nc(N)c3c(n2)NC(=O)C3(C)c2ccc(F)cc2)cn2ccnc12` (stereo not drawn) [Example 62A, 4-amino-5-(4-fluorophenyl)-5-methyl-2-[8-(propylsulfanyl)imidazo[1,2-a]pyrazin-6-yl]-5,7-dihydro-6H-pyrrolo [2,3-d]pyrimidin-6-one], in assay [1] (single oral dose 1.0 mpk P.O.), the “Maximum peak decrease” value is listed as “B (Category B=SBP in SHRs 20-40 mmHg)”. In addition, in assay [2], the Emax is 99% and the EC50 worked out at 142 nM.
